# Measurements published in patent US20210330611A1, “THERAPY FOR NEUROLOGICAL DISEASES/DISORDERS” (priority 2020, published 2021).
# Like-named read-outs stand apart in the source and are kept apart here. Where a SMILES comes first, the peptide text is derived from it. Bridges are numbered along the chain shown (N, C = ends). [ ]: non-standard residue; d: D form. The star is where a group is joined. X1 = CC[C@H](C)CCCCC(=O)*; Dab = NCC[C@H](N)C(=O)O
# Columns and labels:
# [1] = system: fibrin-induced microglia activation; experiment: Image-based assay of fibrin-induced microglia activation (HTS and dose response); assay type: cell-based, rat; settings: for inhibition at 10 µM / Fibrin % inhibition: primary microglia HTS; for inhibition at 10 µM: read-out: Fibrin % inhibition
# [2] = system: fibrin- and LPS-induced microglia activation; experiment: cells; assay type: cell-based, rat
# [3] = system: LPS-induced microglia activation; experiment: Image-based assay of LPS-induced microglia activation (HTS and dose response); assay type: cell-based, rat; settings: for inhibition at 10 µM / LPS % inhibition: primary microglia HTS; for inhibition at 10 µM: read-out: LPS % inhibition
# primary rat microglia [4] = experiment: Cell toxicity (dead cells, size <150 μm2) in LPS assay; settings: primary microglia HTS
# primary rat microglia [5] = experiment: Cell toxicity (dead cells, size <150 μm2) in coated fibrin (cFib) assay; settings: primary microglia HTS;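 also: share of dead cells sized under 150 µm2 at 10 µM in fibrin-stimulated microglia HTS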
# [6] = Rattus norvegicus, Microglia, fibrin stimulation, increased cell size (>800 μm^2) as marker of activation
# [7] = quadrant by fibrin and LPS inhibition in HTS of 1907 compounds
# [8] = Rattus norvegicus, Microglia, 48 h, LPS stimulation, increased cell size (>800 μm^2) as marker of activation
# [9] = LPS stimulation, decreased size (<150 μm^2) as marker of toxicity
# [10] = fibrin stimulation, decreased size (<150 μm^2) as marker of toxicity
# [11] = fibrin stimulation, increased cell size (>800 μm^2) as marker of activation
# [12] = LPS stimulation, increased cell size (>800 μm^2) as marker of activation
# [13] = Rattus norvegicus, Microglia, 10 μM, fibrin-stimulated, cell size >800 μm^2 as marker of activation
# [14] = HTS of 1907 compounds, quadrant by fibrin and LPS inhibition
# [15] = Rattus norvegicus, Microglia, 10 μM, LPS-stimulated, cell size >800 μm^2 as marker of activation
# [16] = 10 μM, LPS assay, cell size <150 μm^2 as marker of toxicity
# [17] = 10 μM, fibrin assay, cell size <150 μm^2 as marker of toxicity
smiles,measurement,setting,value
CC(C)(CO)C(O)C(=O)NCCCO (centres unmarked) [Panthenol],inhibition at 10 µM,[1]; [6],-32%
same,Quadrant (FIG. 5b),[2]; [7],Q4
same,inhibition at 10 µM,[3]; [8],6%
same,LPS % cell toxicity,primary rat microglia [4]; [9],0%
same,Fibrin % cell toxicity,primary rat microglia [5]; [10],1%
"COc1ccnc(C[S+]([O-])c2nc3cc(OC(F)F)ccc3[n-]2)c1OC.[Na+] (centres unmarked) [Pantoprazole, Pantoprazole Sodium Salt]",Fibrin % inhibition,[1]; [11],−8%
same,Quadrant (FIG. 5b),[2]; [7],Q4
same,LPS % inhibition,[3]; [12],−1%
same,LPS % cell toxicity,primary rat microglia [4]; [9],0%
same,Fibrin % cell toxicity,primary rat microglia [5]; [10],0%
COc1ccc(Cc2nccc3cc(OC)c(OC)cc23)cc1OC [Papaverine],inhibition at 10 µM,[1]; [6],12%
same,Quadrant (FIG. 5b),[2]; [7],Q4
same,inhibition at 10 µM,[3]; [8],27%
same,LPS % cell toxicity,primary rat microglia [4]; [9],0%
same,Fibrin % cell toxicity,primary rat microglia [5]; [10],0%
NC(=O)NC(=O)Cc1ccccc1 [Phenacemide],inhibition at 10 µM,[1]; [6],-9%
same,Quadrant (FIG. 5b),[2]; [7],Q1
same,inhibition at 10 µM,[3]; [8],66%
same,LPS % cell toxicity,primary rat microglia [4]; [9],1%
same,Fibrin % cell toxicity,primary rat microglia [5]; [10],1%
CC[C@H](C)CCCCC(=O)N[C@@H](CCN)C(=O)N[C@H](C(=O)N[C@@H](CCN)C(=O)N[C@H]1CCNC(=O)[C@H]([C@@H](C)O)NC(=O)[C@H](CCN)NC(=O)[C@H](CCN)NC(=O)[C@H](CC(C)C)NC(=O)[C@@H](Cc2ccccc2)NC(=O)[C@H](CCN)NC1=O)[C@@H](C)O [Polymyxin B1] (X1-[Dab]T[Dab][Dab][Dab][dF]L[Dab][Dab]T; lactam 4-C),Fibrin % inhibition,[1]; [11],−21%
same,Quadrant (FIG. 5b),[2]; [7],Q1
same,LPS % inhibition,[3]; [12],60%
same,LPS % cell toxicity,primary rat microglia [4]; [9],1%
same,Fibrin % cell toxicity,primary rat microglia [5]; [10],1%
"CC(=O)OCC(=O)[C@@]1(O)CC[C@H]2[C@@H]3CCC4=CC(=O)C=C[C@]4(C)[C@H]3[C@@H](O)C[C@@]21C [Prednisolone acetate, reference compound]",IC50,"[1]; Rattus norvegicus, Microglia, Table 7, read-out: fib_IC50",3 nM
same,inhibition at 10 µM,[1]; [6],109%
same,Quadrant (FIG. 5b),"[2]; Table 2, screen at 10 μM",Q2
same,Activity,"[2]; Table 7, fib = fibrin, LPS, tox = toxicity",fib/LPS
same,Quadrant (FIG. 5b),[2]; [7],Q2
same,inhibition at 10 µM,[3]; [8],111%
same,IC50,"[3]; Rattus norvegicus, Microglia, Table 7, read-out: LPS_IC50",3 nM
same,LPS % cell toxicity,primary rat microglia [4]; [9],6%
same,Fibrin % cell toxicity,primary rat microglia [5]; [10],4%
CN(C)CCCN1c2ccccc2Sc2ccccc21 [Promazine],inhibition at 10 µM,[1]; [6],46%
same,Quadrant (FIG. 5b),[2]; [7],Q1
same,inhibition at 10 µM,[3]; [8],117%
same,LPS % cell toxicity,primary rat microglia [4]; [9],64%
same,Fibrin % cell toxicity,primary rat microglia [5]; [10],1%
C[C@]12Cc3c[nH]nc3C[C@@H]1CC[C@@H]1[C@@H]2CC[C@@]2(C)[C@H]1CC[C@]2(C)O [Stanozolol],inhibition at 10 µM,[1]; [13],-5%
same,Quadrant (FIG. 5b),[2]; [14],Q4
same,inhibition at 10 µM,[3]; [15],33%
same,LPS % cell toxicity,primary rat microglia [4]; [16],1%
same,Fibrin % cell toxicity,primary rat microglia [5]; [17],1%
Cc1cn([C@H]2C=C[C@@H](CO)O2)c(=O)[nH]c1=O [Stavudine],inhibition at 10 µM,[1]; [13],-17%
same,Quadrant (FIG. 5b),[2]; [14],Q4
same,inhibition at 10 µM,[3]; [15],19%
same,LPS % cell toxicity,primary rat microglia [4]; [16],0%
same,Fibrin % cell toxicity,primary rat microglia [5]; [17],1%
O=C(O)[C@@H](S)[C@@H](S)C(=O)O [Succimer],inhibition at 10 µM,[1]; [13],-37%
same,Quadrant (FIG. 5b),[2]; [14],Q4
same,inhibition at 10 µM,[3]; [15],-5%
same,LPS % cell toxicity,primary rat microglia [4]; [16],0%
same,Fibrin % cell toxicity,primary rat microglia [5]; [17],0%
C[N+](C)(C)CCOC(=O)CCC(=O)OCC[N+](C)(C)C [Succinylcholine],inhibition at 10 µM,[1]; [13],-54%
same,Quadrant (FIG. 5b),[2]; [14],Q4
same,inhibition at 10 µM,[3]; [15],-5%
same,LPS % cell toxicity,primary rat microglia [4]; [16],0%
same,Fibrin % cell toxicity,primary rat microglia [5]; [17],1%
O=C(O)CCC(=O)Nc1ccc(S(=O)(=O)Nc2nccs2)cc1 [Succinylsulfathiazole],inhibition at 10 µM,[1]; [13],15%
same,Quadrant (FIG. 5b),[2]; [14],Q4
same,inhibition at 10 µM,[3]; [15],16%
same,LPS % cell toxicity,primary rat microglia [4]; [16],1%
same,Fibrin % cell toxicity,primary rat microglia [5]; [17],1%
OC[C@H]1O[C@H](O[C@]2(CCl)O[C@H](CCl)[C@@H](O)[C@@H]2O)[C@H](O)[C@@H](O)[C@H]1Cl [Sucralose],inhibition at 10 µM,[1]; [13],0%
same,Quadrant (FIG. 5b),[2]; [14],Q4
same,inhibition at 10 µM,[3]; [15],16%
same,LPS % cell toxicity,primary rat microglia [4]; [16],0%
same,Fibrin % cell toxicity,primary rat microglia [5]; [17],1%
S=C1SCN(Cc2ccccc2)CN1Cc1ccccc1 [Sulbentine],inhibition at 10 µM,[1]; [13],48%
same,Quadrant (FIG. 5b),[2]; [14],Q4
same,inhibition at 10 µM,[3]; [15],13%
same,LPS % cell toxicity,primary rat microglia [4]; [16],0%
same,Fibrin % cell toxicity,primary rat microglia [5]; [17],1%
Nc1ccc(S(=O)(=O)NC(=O)c2ccccc2)cc1 [Sulfabenzamide],inhibition at 10 µM,[1]; [13],-15%
same,Quadrant (FIG. 5b),[2]; [14],Q4
same,inhibition at 10 µM,[3]; [15],19%
same,LPS % cell toxicity,primary rat microglia [4]; [16],1%
same,Fibrin % cell toxicity,primary rat microglia [5]; [17],1%
NC(=O)NS(=O)(=O)c1ccc(N)cc1 [Sulfacarbamide],inhibition at 10 µM,[1]; [13],45%
same,Quadrant (FIG. 5b),[2]; [14],Q4
same,inhibition at 10 µM,[3]; [15],46%
same,LPS % cell toxicity,primary rat microglia [4]; [16],0%
same,Fibrin % cell toxicity,primary rat microglia [5]; [17],1%
CC(=O)NS(=O)(=O)c1ccc(N)cc1 [Sulfacetamide],inhibition at 10 µM,[1]; [13],-2%
same,Quadrant (FIG. 5b),[2]; [14],Q4
same,inhibition at 10 µM,[3]; [15],10%
same,LPS % cell toxicity,primary rat microglia [4]; [16],0%
same,Fibrin % cell toxicity,primary rat microglia [5]; [17],1%
Nc1ccc(S(=O)(=O)Nc2ccc(Cl)nn2)cc1 [Sulfachlorpyridazine],inhibition at 10 µM,[1]; [13],18%
same,Quadrant (FIG. 5b),[2]; [14],Q4
same,inhibition at 10 µM,[3]; [15],14%
same,LPS % cell toxicity,primary rat microglia [4]; [16],0%
same,Fibrin % cell toxicity,primary rat microglia [5]; [17],1%
COc1cc(NS(=O)(=O)c2ccc(N)cc2)nc(OC)n1 [Sulfadimethoxine],inhibition at 10 µM,[1]; [13],42%
same,Quadrant (FIG. 5b),[2]; [14],Q4
same,inhibition at 10 µM,[3]; [15],13%
same,LPS % cell toxicity,primary rat microglia [4]; [16],0%
same,Fibrin % cell toxicity,primary rat microglia [5]; [17],1%
COc1ncnc(NS(=O)(=O)c2ccc(N)cc2)c1OC [Sulfadoxine],inhibition at 10 µM,[1]; [13],-12%
same,Quadrant (FIG. 5b),[2]; [14],Q4
same,inhibition at 10 µM,[3]; [15],3%
same,LPS % cell toxicity,primary rat microglia [4]; [16],0%
same,Fibrin % cell toxicity,primary rat microglia [5]; [17],1%
[H]/N=C(/N)NS(=O)(=O)c1ccc(N)cc1 [Sulfaguanidine],inhibition at 10 µM,[1]; [13],-23%
same,Quadrant (FIG. 5b),[2]; [14],Q4
same,inhibition at 10 µM,[3]; [15],12%
same,LPS % cell toxicity,primary rat microglia [4]; [16],0%
same,Fibrin % cell toxicity,primary rat microglia [5]; [17],1%
Cc1ccnc(NS(=O)(=O)c2ccc(N)cc2)n1 [Sulfamerazine],inhibition at 10 µM,[1]; [13],-2%
same,Quadrant (FIG. 5b),[2]; [14],Q4
same,inhibition at 10 µM,[3]; [15],12%
same,LPS % cell toxicity,primary rat microglia [4]; [16],0%
same,Fibrin % cell toxicity,primary rat microglia [5]; [17],1%
COc1cnc(NS(=O)(=O)c2ccc(N)cc2)nc1 [Sulfameter],inhibition at 10 µM,[1]; [13],4%
same,Quadrant (FIG. 5b),[2]; [14],Q4
same,inhibition at 10 µM,[3]; [15],11%
same,LPS % cell toxicity,primary rat microglia [4]; [16],0%
same,Fibrin % cell toxicity,primary rat microglia [5]; [17],1%
Cc1nnc(NS(=O)(=O)c2ccc(N)cc2)s1 [Sulfamethizole],inhibition at 10 µM,[1]; [13],-3%
same,Quadrant (FIG. 5b),[2]; [14],Q4
same,inhibition at 10 µM,[3]; [15],16%
same,LPS % cell toxicity,primary rat microglia [4]; [16],0%
same,Fibrin % cell toxicity,primary rat microglia [5]; [17],1%
COc1ccc(NS(=O)(=O)c2ccc(N)cc2)nn1 [Sulfamethoxypyridazine],inhibition at 10 µM,[1]; [13],21%
same,Quadrant (FIG. 5b),[2]; [14],Q4
same,inhibition at 10 µM,[3]; [15],15%
same,LPS % cell toxicity,primary rat microglia [4]; [16],0%
same,Fibrin % cell toxicity,primary rat microglia [5]; [17],1%
COc1cc(NS(=O)(=O)c2ccc(N)cc2)ncn1 [Sulfamonomethoxine],inhibition at 10 µM,[1]; [13],38%
same,Quadrant (FIG. 5b),[2]; [14],Q4
same,inhibition at 10 µM,[3]; [15],19%
same,LPS % cell toxicity,primary rat microglia [4]; [16],1%
same,Fibrin % cell toxicity,primary rat microglia [5]; [17],1%
